Data: patent US20260364213A1, “RADIOLABELED COMPOUNDS OF TRIMETHOPRIM AND USES THEREOF” (THE TRUSTEES OF THE UNIVERSITY OF PENNSYLVANIA, priority 2023, published 2026)
Entries after “also recorded” stand apart in the source; their conditions may differ.

Key:
[1] = test system: primary human hepatocytes; assay: Hepatocyte spheroid assay (liver metabolite study); format: in vitro ADME
Protocol: Cryopreserved primary human hepatocytes were acquired from ThermoFisher. To each well of a 96 well ultra-low attachment U-bottom plate, 2,000 cells were plated in 200 μL William's E Medium (no phenol red, 20% FBS, 1% penicillin-streptomycin, 1% insulin-transferrin-selenium solution, […], 1% L-glutamine). The plate was centrifuged at 300 rpm for 2 minutes and then incubated without disturbance. After 5 days, 100 μL of spent media was removed and replaced with fresh media. […] The supernatant was then removed and analyzed on an Agilent 1260 Infinity II LC system equipped with an Eckert & Ziegler FlowCountPRO detector.
Specifically, 2,000 cells were plated in 200 μL William's E Medium (no phenol red, 20% FBS, 1% penicillin-streptomycin, 1% insulin-transferrin-selenium solution, […], 1% L-glutamine). […] The supernatant was then removed and analyzed on an Agilent 1260 Infinity II LC system equipped with an Eckert & Ziegler FlowCountPRO detector.
Specifically, cryopreserved hepatocytes were thawed and diluted 1:10 in a 15 mL conical tube with warm culture media (William's E Medium, no phenol red, 20% FBS, 1% penicillin-streptomycin, 1% insulin-transferrin-selenium solution, […], 1% L-glutamine). […] Cells were counted and diluted to a concentration of 10,000 live cells/mL. […] The supernatant was transferred into an autosampler vial and analyzed by HPLC.

[2] = Ex vivo biodistribution in healthy Balb/c mice; set-up: species or system mouse
Protocol: Given promising in vitro experimental results, a biodistribution study was conducted on healthy balb/c mice. […] Mice were then euthanized 1-hour, 4-hour, and 24-hour post radiotracer injection, and organs were harvested for bio-distribution quantification. […] Total radioactive uptake per organ, in CPM, was determined by γ-counter (Wizard Detector, Perkin Elmer). […] See, FIG. 10A-10B and FIG. 11. These tissues could be sites where eDHFR could be localized using genetic vectors to achieve a high therapeutic index.
Another ex-vivo biodistribution study was performed with potassium iodide (SSKI) administration 8-12-week-old female balb/c mice (n=9) were administered with intraperitoneal administration for thyroid protection, with a dose of 100 mg/kg potassium iodide in a volume of 100 μL/10 g given the day before treatment, 30 minutes before the radioactive [^131I]mI-TMP injection.

HCT116 tumor cells = assay: Radiotherapy of HCT116 tumor-bearing athymic nude mice; format: in vivo, human
Source text: Tumor size measurements were taken using calipers from day 1 to 14 post-injection of the [^131I]mI-TMP to monitor the response of radiation therapy. […] See, FIG. 11 and FIG. 12.
To evaluate the therapeutic potential [^131I]mI-TMP, sixteen (16) 8- to 12-week-old female athymic nude mice (Charles River Laboratories) were inoculated with 1×10^7 HCT116 tumor cells (eDHFR+ or WT) on the left shoulder. The mice were then divided into two groups: […] (8) mice with HCT116-eDHFR (eDHFR-positive cells) and Eight (8) mice with HCT116-WT (eDHFR-negative) cells.
Three (3) of the five (5) mice from each cohort were imaged at 3- and 24-hours post [^131I]mI-TMPI radiotherapy injection using small animal SPECT and CT instruments. Five (5) mice from each cohort (which included the 3 imaged mice from each cohort) were then monitored for 14 days using caliper measurements and IVIS imaging.

Row | SMILES | de-iodination in hepatocyte culture ([1]; after 24 hours) | de-iodination with CYP450 inhibitor ([1]; with 1-aminobenzotriazole (100 μM)) | stomach and liver uptake with KI pre-treatment ([2]; 0.67 MBq, 1 h) | uptake in blood, heart, lungs, brain, pancreas, bones and spleen with KI pre-treatment ([2]; 0.67 MBq, 1 h) | organ radioactivity, 24 h ([2]; 0.74 MBq i.v. tail vein, 24 h, no KI) | organ radioactivity, 1 h ([2]; 0.74 MBq i.v. tail vein, Balb/c, after 1 h time point) | uptake in heart, lungs, brain, pancreas, bones and spleen ([2]; 0.74 MBq i.v., all time points (1, 4, 24 h)) | organ radioactivity with KI pre-treatment ([2]; kidney, small intestine, large intestine, 0.67 MBq, 1 h) | thyroid uptake with KI pre-treatment ([2]; potassium iodide (SSKI) 100 mg/kg, 0.67 MBq, 1 h) | tumor size, eDHFR-Luc tumors (HCT116 tumor cells; 18.5 MBq (500 μCi) i.v. tail vein, caliper, day 1 to 14) | tumor size, eDHFR-negative tumors (HCT116 tumor cells; 18.5 MBq (500 μCi) i.v., day 7 to day 14)
1 | COc1cc(Cc2cnc(N)nc2N)cc(I)c1OC [[^131I]mI-TMP, 5-(3-iodo-4,5-dimethoxybenzyl)pyrimidine-2,4-diamine] | minor de-iodination | could be inhibited | – | – | – | – | – | – | – | – | –
2 | COc1cc(Cc2cnc(N)nc2N)cc([131I])c1OC [[^131I]mI-TMP, 5-(3-iodo-4,5-dimethoxybenzyl)pyrimidine-2,4-diamine] | – | – | low uptake | Minimal to no uptake; also recorded: negligible uptake | increase in radioactivity in thyroid, indicating the deiodination | significant increase in the radioactivity in the kidney, small intestine, stomach, and liver | Minimal to no uptake | significant increase in the radioactivity in the kidney, small intestine and large intestine | abrogated thyroid uptake | reduction in tumor size at day 7 post-injection, which remained stable until day 10 but increased by day 14 | continued to grow from day 7 to day 14
